Reference: ChEMBL document CHEMBL5108028 (Bioorg Med Chem, 2022)
Calls of active or inactive are those of the source. The rule behind the calls is not given here. Where a SMILES comes first, the peptide text is derived from it. [ ]: non-standard residue; d: D form. 2Thi = N[C@@H](Cc1cccs1)C(=O)O; hSer = N[C@@H](CCO)C(=O)O; Nle = CCCC[C@H](N)C(=O)O

What was measured:
MKN-74 = experiment: Anticancer activity against human MKN-74 cells assessed as inhibition of cell growth incubated for 3 days by MTT assay; format: functional, cell-based; conditions: MKN-74, 72 h
MKN-7 = experiment: Anticancer activity against human MKN-7 cells assessed as inhibition of cell growth incubated for 3 days by MTT assay; format: functional, cell-based; conditions: MKN-7, 72 h
[1] = biological target: T1, Cadherin-1 (Homo sapiens) (UniProt P12830); experiment: Binding affinity to human E-cadherin in human MKN-7 cell membrane protein fraction measured after 2 hrs by Western blotting based pull-down assay; format: cell membranes
T1 sequence (whole entry): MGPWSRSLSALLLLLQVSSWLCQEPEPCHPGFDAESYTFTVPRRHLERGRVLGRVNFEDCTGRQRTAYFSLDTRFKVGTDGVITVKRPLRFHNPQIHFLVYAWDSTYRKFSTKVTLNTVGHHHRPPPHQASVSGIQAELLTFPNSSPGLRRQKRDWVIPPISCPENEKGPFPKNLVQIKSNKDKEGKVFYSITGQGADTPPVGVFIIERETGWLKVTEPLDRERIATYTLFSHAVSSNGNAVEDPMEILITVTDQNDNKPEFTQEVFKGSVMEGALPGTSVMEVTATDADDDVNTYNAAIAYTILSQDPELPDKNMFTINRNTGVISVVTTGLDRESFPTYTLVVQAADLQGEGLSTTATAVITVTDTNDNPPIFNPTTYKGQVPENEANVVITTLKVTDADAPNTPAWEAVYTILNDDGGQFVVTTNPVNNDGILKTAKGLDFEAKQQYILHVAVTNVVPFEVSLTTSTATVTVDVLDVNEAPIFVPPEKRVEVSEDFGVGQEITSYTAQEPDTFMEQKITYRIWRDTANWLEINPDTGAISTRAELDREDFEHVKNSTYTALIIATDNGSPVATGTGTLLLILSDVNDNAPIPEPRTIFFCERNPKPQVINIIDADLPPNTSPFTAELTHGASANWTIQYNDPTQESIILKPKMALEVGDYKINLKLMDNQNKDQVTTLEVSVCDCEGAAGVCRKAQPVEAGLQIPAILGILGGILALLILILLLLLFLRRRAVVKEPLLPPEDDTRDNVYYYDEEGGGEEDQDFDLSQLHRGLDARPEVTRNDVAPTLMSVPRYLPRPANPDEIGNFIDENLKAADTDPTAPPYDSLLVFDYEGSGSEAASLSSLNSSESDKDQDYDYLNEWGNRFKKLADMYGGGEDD

Compound	IC50 (MKN-74)	IC50 (MKN-7)	Activity [1]
H-AIDLNYMVYM-OH	9.29 µM	4.03 µM	
H-DLNYMVYM-NH2	20.7 µM	13.5 µM	
H-FADLNYMVYM-OH	3.91 µM	4.38 µM	
H-FIDANYMVYM-OH	5.47 µM	9.56 µM	
H-FIDLAYMVYM-OH	8.84 µM	5.8 µM	
H-FIDLNAMVYM-OH	1.14 µM	2.62 µM	
H-FIDLNYAVYM-OH	9.05 µM	3.01 µM	
H-FIDLNYFVYM-NH2	1.59 µM	8.23 µM	
H-FIDLNYMAYM-OH	16.3 µM	14.8 µM	
H-FIDLNYMV-NH2	21.6 µM	8.22 µM	
H-FIDLNYMVY-NH2	17.9 µM	4.3 µM	
H-FIDLNYMVYA-OH	4.5 µM	8.78 µM	
H-FIDLNYMVYM-OH	13.2 µg/mL	18.9 µg/mL	Active
H-IDLNYMVYM-NH2	25.7 µM	11.4 µM	
H-KVDIVAINDP-OH		97.3 µg/mL	
H-YMVYMFQYDS-OH		79.1 µg/mL	

Other lines, results leading:

IC50 (MKN-74)	IC50 (MKN-7)	Activity [1]	Compound
0.98 µM	8.62 µM		CC[C@H](C)[C@H](NC(=O)[C@@H](N)Cc1ccccc1)C(=O)N[C@@H](CC(=O)O)C(=O)N[C@@H](CC(C)C)C(=O)N[C@@H](CC(N)=O)C(=O)N[C@@H](Cc1ccc(O)cc1)C(=O)N[C@@H](CCSC)C(=O)N[C@H](C(=O)N[C@@H](Cc1ccc(O)cc1)C(=O)N[C@@H](Cc1cccs1)C(N)=O)C(C)C (H-FIDLNYMVY[2Thi]-NH2)
0.35 µM	10.2 µM		CCCC[C@H](NC(=O)[C@H](Cc1ccc(O)cc1)NC(=O)[C@@H](NC(=O)[C@H](CCSC)NC(=O)[C@H](Cc1ccc(O)cc1)NC(=O)[C@H](CC(N)=O)NC(=O)[C@H](CC(C)C)NC(=O)[C@H](CC(=O)O)NC(=O)[C@@H](NC(=O)[C@@H](N)Cc1ccccc1)[C@@H](C)CC)C(C)C)C(N)=O (H-FIDLNYMVY[Nle]-NH2)
0.19 µM	4.43 µM		CC[C@H](C)[C@H](NC(=O)[C@@H](N)Cc1ccccc1)C(=O)N[C@@H](CC(=O)O)C(=O)N[C@@H](CC(C)C)C(=O)N[C@@H](CC(N)=O)C(=O)N[C@@H](Cc1ccc(O)cc1)C(=O)N[C@@H](CCSC)C(=O)N[C@H](C(=O)N[C@@H](Cc1ccc(O)cc1)C(=O)N[C@@H](CCOC)C(N)=O)C(C)C (H-FIDLNYMVY[hSer](Me)-NH2)
0.96 µM	6.35 µM		CC[C@H](C)[C@H](NC(=O)[C@@H](N)Cc1ccccc1)C(=O)N[C@@H](CC(=O)O)C(=O)N[C@@H](CC(C)C)C(=O)N[C@@H](CC(N)=O)C(=O)N[C@@H](Cc1ccc(O)cc1)C(=O)N[C@@H](Cc1cccs1)C(=O)N[C@H](C(=O)N[C@@H](Cc1ccc(O)cc1)C(=O)N[C@@H](CCSC)C(N)=O)C(C)C (H-FIDLNY[2Thi]VYM-NH2)
0.2 µM	1.64 µM		CCCC[C@H](NC(=O)[C@H](Cc1ccc(O)cc1)NC(=O)[C@H](CC(N)=O)NC(=O)[C@H](CC(C)C)NC(=O)[C@H](CC(=O)O)NC(=O)[C@@H](NC(=O)[C@@H](N)Cc1ccccc1)[C@@H](C)CC)C(=O)N[C@H](C(=O)N[C@@H](Cc1ccc(O)cc1)C(=O)N[C@@H](CCSC)C(N)=O)C(C)C (H-FIDLNY[Nle]VYM-NH2)
0.07 µM	0.61 µM		CCCC[C@H](NC(=O)[C@H](Cc1ccc(O)cc1)NC(=O)[C@H](CC(N)=O)NC(=O)[C@H](CC(C)C)NC(=O)[C@H](CC(=O)O)NC(=O)[C@@H](NC(=O)[C@@H](N)Cc1ccccc1)[C@@H](C)CC)C(=O)N[C@H](C(=O)N[C@@H](Cc1ccc(O)cc1)C(=O)N[C@@H](CCOC)C(N)=O)C(C)C (H-FIDLNY[Nle]VY[hSer](Me)-NH2)
0.2 µM	3.51 µM		CC[C@H](C)[C@H](NC(=O)[C@@H](N)Cc1ccccc1)C(=O)N[C@@H](CC(=O)O)C(=O)N[C@@H](CC(C)C)C(=O)N[C@@H](CC(N)=O)C(=O)N[C@@H](Cc1ccc(O)cc1)C(=O)N[C@@H](CCOC)C(=O)N[C@H](C(=O)N[C@@H](Cc1ccc(O)cc1)C(=O)N[C@@H](CCSC)C(N)=O)C(C)C (H-FIDLNY[hSer](Me)VYM-NH2)
1.14 µM	0.98 µM		H-FIALNYMVYM-OH
0.16 µM	3.36 µM		H-FIDLNYLVYM-NH2
1.11 µM	4.24 µM		H-FIDLNYMVAM-OH
0.25 µM	6.87 µM		H-FIDLNYMVYF-NH2
1.09 µM	9.81 µM		H-FIDLNYMVYL-NH2
0.37 µM	1.13 µM		H-FIDLNYMVYM-NH2
